Laboratory results published in patent US6737383B1, “Herbicidal oxadiazolidines” (priority 1999, dated 2004).

What was measured:
wheat = experiment: Test B pre/postemergence wheat; format: in vivo, Triticum aestivum
In short: (§1)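 Herbicidal effect was estimated by eye on a ten-point control scale after plants spent twelve to sixteen days in a greenhouse following soil or foliar treatment. Foliar sprays targeted plants at one to four leaves; all doses were formulated in a non-phytotoxic solvent with surfactant.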

surinam grass = experiment: Test B pre/postemergence surinam grass; format: in vivo, Brachiaria decumbens
In short: as §1

sugar beet = experiment: Test B pre/postemergence sugar beet; format: in vivo, Beta vulgaris
In short: as §1

velvetleaf = experiment: Test B pre/postemergence velvetleaf; format: in vivo, Abutilon theophrasti
In short: as §1

corn = experiment: Test B pre/postemergence corn; format: in vivo, Zea mays
In short: as §1

rice = experiment: Test B flood test rice; format: in vivo, Oryza sativa
In short: (§2)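 Each value is a visual injury score relative to controls, with 10 meaning complete control and 0 no effect. Evaluation took place twelve to sixteen days after the 2-leaf-stage plants were treated and kept in the greenhouse.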

morningglory = experiment: Test B pre/postemergence morningglory; format: in vivo, Ipomoea hederacea
In short: as §1

smallflower flatsedge = experiment: Test B flood test smallflower flatsedge; format: in vivo, Cyperus difformis
In short: as §2

blackgrass = experiment: Test B pre/postemergence blackgrass; format: in vivo, Alopecurus myosuroides
In short: as §1

pigweed = experiment: Test B pre/postemergence pigweed; format: in vivo, Amaranthus retroflexus
In short: as §1

giant foxtail = experiment: Test B pre/postemergence giant foxtail; format: in vivo, Setaria faberii
In short: as §1

rape = experiment: Test B pre/postemergence rape; format: in vivo, Brassica napus
In short: as §1

purple nutsedge = experiment: Test B pre/postemergence purple nutsedge; format: in vivo, Cyperus rotundus
In short: as §1

crabgrass = experiment: Test B pre/postemergence crabgrass; format: in vivo, Digitaria sanguinalis
In short: as §1

cocklebur = experiment: Test B pre/postemergence cocklebur; format: in vivo, Xanthium strumarium
In short: as §1

duck salad = experiment: Test B flood test duck salad; format: in vivo, Heteranthera limosa
In short: as §2

[1] = Preemergence, Rate 62 g/ha, scale of 0 to 10 where 0 is no effect and 10 is complete control
[2] = Preemergence, Rate 250 g/ha, scale of 0 to 10 where 0 is no effect and 10 is complete control
[3] = Preemergence, Rate 500 g/ha, scale of 0 to 10 where 0 is no effect and 10 is complete control
[4] = Rate 62 g/ha, Postemergence, scale of 0 to 10 where 0 is no effect and 10 is complete control
[5] = Rate 125 g/ha, Postemergence, scale 0 to 10
[6] = Rate 125 g/ha, Preemergence, scale of 0 to 10 where 0 is no effect and 10 is complete control
[7] = Rate 500 g/ha, Postemergence, scale 0 to 10, 0 no effect, 10 complete control
[8] = Rate 62 g/ha, headed Pre-emergence (flood test species), scale 0 to 10 (0 no effect, 10 complete control)
[9] = Rate 125 g/ha, Pre-emergence, flood test species, scale 0 to 10 where 0 is no effect and 10 is complete control
[10] = Rate 250 g/ha, Pre-emergence, flood-test species, scale 0 to 10, 0 is no effect, 10 is complete control
[11] = Rate 500 g/ha, Pre-emergence, flood test species, scale 0 to 10 (0 no effect, 10 complete control)

Compound: Cc1nc(C)c(Cn2c(=O)on(C(=O)N(c3ccc(F)cc3F)C(C)C)c2=O)s1 [Compound 233]
- Wheat plant response rating (wheat; [1]): 0
- Wheat plant response rating (wheat; [2]): 0
- Plant response rating, Wheat (wheat; [3]): 0
- Wheat plant response rating (wheat; [4]): 0
- Wheat plant response rating (wheat; [5]): 0
- Wheat plant response rating (wheat; [6]): 0
- Plant response rating (0 to 10; 0 is no effect, 10 is complete control), Wheat (wheat; Rate 250 g/ha, Postemergence): 0
- Wheat plant response rating (wheat; [7]): 0
- B. signalgrass plant response rating (surinam grass; [1]): 0
- B. signalgrass plant response rating (surinam grass; Preemergence, Rate 250 g/ha, scale 0 to 10, 0 is no effect, 10 is complete control): 4
- Plant response rating, B. signalgrass (surinam grass; [3]): 4
- B. signalgrass plant response rating (surinam grass; [4]): 0
- B. signalgrass plant response rating (surinam grass; Rate 125 g/ha, Postemergence, scale 0 (no effect) to 10 (complete control)): 0
- B. signalgrass plant response rating (surinam grass; [6]): 2
- Plant response rating (0 to 10; 0 is no effect, 10 is complete control), B. signalgrass (surinam grass; Rate 250 g/ha, Postemergence): 0
- B. signalgrass plant response rating (surinam grass; [7]): 1
- Sugarbeets plant response rating (sugar beet; [1]): 0
- Sugarbeets plant response rating (sugar beet; [2]): 4
- Plant response rating, Sugarbeets (sugar beet; [3]): 8
- Sugarbeets plant response rating (sugar beet; [4]): 0
- Sugarbeets plant response rating (sugar beet; [5]): 0
- Sugarbeets plant response rating (sugar beet; [6]): 0
- Plant response rating (0 to 10; 0 is no effect, 10 is complete control), Sugarbeets (sugar beet; Rate 250 g/ha, Postemergence): 0
- Sugarbeets plant response rating (sugar beet; [7]): 4
- Velvetleaf plant response rating (velvetleaf; [1]): 0
- Velvetleaf plant response rating (velvetleaf; [2]): 2
- Plant response rating, Velvetleaf (velvetleaf; [3]): 7
- Velvetleaf plant response rating (velvetleaf; [4]): 2
- Velvetleaf plant response rating (velvetleaf; [5]): 2
- Velvetleaf plant response rating (velvetleaf; [6]): 0
- Plant response rating (0 to 10; 0 is no effect, 10 is complete control), Velvetleaf (velvetleaf; Rate 250 g/ha, Postemergence): 3
- Velvetleaf plant response rating (velvetleaf; [7]): 3
- Corn plant response rating (corn; [1]): 0
- Corn plant response rating (corn; [2]): 0
- Plant response rating, Corn (corn; [3]): 0
- Corn plant response rating (corn; [4]): 0
- Corn plant response rating (corn; [5]): 0
- Corn plant response rating (corn; [6]): 0
- Plant response rating (0 to 10; 0 is no effect, 10 is complete control), Corn (corn; Rate 250 g/ha, Postemergence): 0
- Corn plant response rating (corn; [7]): 0
- Rice plant response rating (rice; [8]): 0
- Rice plant response rating (rice; [9]): 0
- Rice plant response rating (rice; [10]): 0
- Rice plant response rating (rice; [11]): 0
- Morningglory plant response rating (morningglory; [1]): 0
- Morningglory plant response rating (morningglory; [2]): 0
- Plant response rating, Morningglory (morningglory; [3]): 2
- Morningglory plant response rating (morningglory; [4]): 3
- Morningglory plant response rating (morningglory; [5]): 3
- Morningglory plant response rating (morningglory; [6]): 0
- Plant response rating (0 to 10; 0 is no effect, 10 is complete control), Morningglory (morningglory; Rate 250 g/ha, Postemergence): 3
- Morningglory plant response rating (morningglory; [7]): 8
- S. Flatsedge plant response rating (smallflower flatsedge; [8]): 0
- S. Flatsedge plant response rating (smallflower flatsedge; [9]): 0
- S. Flatsedge plant response rating (smallflower flatsedge; [10]): 0
- S. Flatsedge plant response rating (smallflower flatsedge; [11]): 0
- Blackgrass plant response rating (blackgrass; [1]): 2
- Blackgrass plant response rating (blackgrass; [2]): 8
- Plant response rating, Blackgrass (blackgrass; [3]): 9
- Blackgrass plant response rating (blackgrass; [4]): 0
- Blackgrass plant response rating (blackgrass; [5]): 0
- Blackgrass plant response rating (blackgrass; [6]): 2
- Plant response rating (0 to 10; 0 is no effect, 10 is complete control), Blackgrass (blackgrass; Rate 250 g/ha, Postemergence): 2
- Blackgrass plant response rating (blackgrass; [7]): 5
- Redroot pigweed plant response rating (pigweed; [1]): 3
- Redroot pigweed plant response rating (pigweed; [2]): 7
- Plant response rating, Redroot pigweed (pigweed; [3]): 8
- Redroot pigweed plant response rating (pigweed; [4]): 0
- Redroot pigweed plant response rating (pigweed; [5]): 0
- Redroot pigweed plant response rating (pigweed; [6]): 6
- Plant response rating (0 to 10; 0 is no effect, 10 is complete control), Redroot pigweed (pigweed; Rate 250 g/ha, Postemergence): 2
- Redroot pigweed plant response rating (pigweed; [7]): 4
- Giant foxtail plant response rating (giant foxtail; [1]): 7
- Giant foxtail plant response rating (giant foxtail; [2]): 9
- Plant response rating, Giant foxtail (giant foxtail; [3]): 10
- Giant foxtail plant response rating (giant foxtail; [4]): 0
- Giant foxtail plant response rating (giant foxtail; [5]): 0
- Giant foxtail plant response rating (giant foxtail; [6]): 7
- Plant response rating (0 to 10; 0 is no effect, 10 is complete control), Giant foxtail (giant foxtail; Rate 250 g/ha, Postemergence): 3
- Giant foxtail plant response rating (giant foxtail; [7]): 6
- Rape plant response rating (rape; [1]): 0
- Rape plant response rating (rape; [2]): 0
- Plant response rating, Rape (rape; [3]): 3
- Rape plant response rating (rape; [4]): 2
- Rape plant response rating (rape; [5]): 2
- Rape plant response rating (rape; [6]): 0
- Plant response rating (0 to 10; 0 is no effect, 10 is complete control), Rape (rape; Rate 250 g/ha, Postemergence): 2
- Rape plant response rating (rape; [7]): 3
- Nutsedge plant response rating (purple nutsedge; [1]): 0
- Nutsedge plant response rating (purple nutsedge; [2]): 0
- Nutsedge plant response rating (purple nutsedge; [4]): 0
- Nutsedge plant response rating (purple nutsedge; [5]): 0
- Plant response rating (0 to 10; 0 is no effect, 10 is complete control), Nutsedge (purple nutsedge; Rate 250 g/ha, Postemergence): 0
- Nutsedge plant response rating (purple nutsedge; [7]): 0
- Crabgrass plant response rating (crabgrass; [1]): 5
- Crabgrass plant response rating (crabgrass; [2]): 9
- Plant response rating, Crabgrass (crabgrass; [3]): 10
- Crabgrass plant response rating (crabgrass; [4]): 0
- Crabgrass plant response rating (crabgrass; [5]): 0
- Crabgrass plant response rating (crabgrass; [6]): 6
- Plant response rating (0 to 10; 0 is no effect, 10 is complete control), Crabgrass (crabgrass; Rate 250 g/ha, Postemergence): 1
- Crabgrass plant response rating (crabgrass; [7]): 6
- Cocklebur plant response rating (cocklebur; [1]): 0
- Cocklebur plant response rating (cocklebur; [2]): 0
- Plant response rating, Cocklebur (cocklebur; [3]): 0
- Cocklebur plant response rating (cocklebur; [4]): 0
- Cocklebur plant response rating (cocklebur; [5]): 2
- Cocklebur plant response rating (cocklebur; [6]): 0
- Plant response rating (0 to 10; 0 is no effect, 10 is complete control), Cocklebur (cocklebur; Rate 250 g/ha, Postemergence): 2
- Cocklebur plant response rating (cocklebur; [7]): 2
- Ducksalad plant response rating (duck salad; [8]): 0
- Ducksalad plant response rating (duck salad; [9]): 0
- Ducksalad plant response rating (duck salad; [10]): 0
- Ducksalad plant response rating (duck salad; [11]): 0
